Laboratory results from patent US11247973B2 (The University of Durham, priority 2016, dated 2022).
Read-outs that look alike come from different tables or passages of the source.

How the values were obtained:
[1] = Cell cytotoxicity CC50 assay (A549 and HeLa cells); type: cell-based; conditions: human, 6-8 days, DMEM+2% FCS
Description: (§1) Cells were obtained from ATCC and the virus preparation was subjected to one round of centrifugation through a 40% (V/V) glycerol to remove any interferon produced from infected cells. Growth medium was Dulbecco's modified Eagle's medium (DMEM) with 10% (v/v) foetal calf serum (FCS), Viral maintainance medium was DMEM+2% (v/v) FCS.
Cell Cytotoxicity—CC50 (Concentration at which 50% Cell Toxicity is Observed):
(§2) A549 cells and HeLa cells were used to seed a set of 96 well plates grown until 50% confluent, a 2 fold serial dilution of the compound was performed on each cell line with DMSO (only) as control starting with 100 μM of the compound. Medium used was DMEM+2% FCS (normal medium for viral growth).
(§3) Cells were allowed to grow for 6-8 days to mimic a TCID50 assay after which cell viability was determined by adding Almar blur (similar to XT) and reading at 600 nm (excitation 540 nm).

[2] = Microsomal clearance, dog; type: in vitro ADME; conditions: male, Beagle, pooled liver microsomes
Procedure: Pooled human liver microsomes (pooled male and female), pooled rat liver microsomes (male Sprague Dawley rats) and pooled dog liver microsomes (male Beagle dog) are purchased from a reputable commercial supplier and stored at −80° C. prior to use.
Microsomes (final protein concentration 0.5 mg/mL), 0.1 M phosphate buffer pH 7.4 and compound 2 (final substrate concentration 3 μM; final DMSO concentration 0.25%) are pre-incubated at 37° C. prior to the addition of NADPH (final concentration 1 mM) to initiate the reaction. The final incubation volume is 50 μL. A control incubation is included for each compound tested where 0.1 M phosphate buffer pH 7.4 is added instead of NADPH (minus NADPH). Two control compounds are included with each species. All incubations are performed singularly for each test compound.
Compounds are incubated for 0, 5, 15, 30 and 45 min. The control (minus NADPH) is incubated for 45 min only. The reactions are stopped by transferring 25 μL of incubate to 50 μL methanol at the appropriate time points. […] Following protein precipitation, the sample supernatants are combined in cassettes of up to 4 compounds, internal standard is added and samples analysed by LC-MS/MS. From a plot of ln peak area ratio (compound peak area/internal standard peak area) against time, the gradient of the line is determined.

[3] = Mouse in vivo pharmacokinetic assay; set-up: species or system male CD-1 mice
Procedure: Pharmacokinetic evaluation of compound 2 was performed in male CD-1 mice following intravenous (IV) and oral (PO) administration. For intravenous administration the compound was formulated in solution in 40:60 DMA:saline and was administered at 1 mg/kg via the tail vein. For oral administration the compound was formulated in suspension in water containing 1% methylcellulose and 0.1% Tween80, and was administered at 10 mg/kg by oral gavage. Blood samples were taken by cardiac puncture under terminal anaesthesia (isoflurane) at ten timepoints between 1 minute and 24 hours following IV administration, and at nine timepoints between 5 minutes and 24 hours following PO administration (n=3 per timepoint). Plasma was immediately obtained by centrifugation, and the resulting samples frozen until analysis. Samples, along with a calibration curve prepared by spiking the compound into control plasma, were subsequently prepared for quantitative analysis by precipitation of plasma proteins with acetonitrile. Analysis was by ultra high performance liquid chromatography (Agilent 1290 system) coupled to time of flight mass spectrometry, using electrospray ionisation (Agilent 6550 system). Pharmacokinetic parameters were determined by non-compartmental analysis of mean concentration data using Phoenix WinNonlin v6.4.

[4] = system: RSV; experiment: Cytopathic effect (CPE) assay; type: cell-based; conditions: human respiratory syncytial virus; A549 cells and HeLa cells, 6-8 days, DMEM+2% FCS; read-out: CPE IC50
Description: as §1
Cytopathic Effect (CPE) Assay—IC50:
as §2, §3

[5] = system: MDR1-MDCK cells; experiment: MDR1-MDCK permeability assay; type: in vitro ADME
Procedure: (§4) MDR1-MDCK cells obtained from the NIH (Rockville, Md., USA) are used between passage numbers 6-30. Cells are seeded onto Millipore Multiscreen Transwell plates at 3.4×10^5 cells/cm^2. The cells are cultured in DMEM and media is changed on day 3. On day 4 the permeability study is performed. Cell culture and assay incubations are carried out at 37° C. in an atmosphere of 5% CO2 with a relative humidity of 95%. On the day of the assay, the monolayers are prepared by rinsing both basolateral and apical surfaces twice with Hanks Balanced Salt Solution (HBSS) at the desired pH warmed to 37° C. Cells are then incubated with HBSS at the desired pH in both apical and basolateral compartments for 40 min to stabilise physiological parameters.
(§5) The dosing solutions are prepared by diluting compound 2 with assay buffer to give a final compound 2 concentration of 10 μM (final DMSO concentration of 1% v/v). The fluorescent integrity marker lucifer yellow is also included in the dosing solution. Analytical standards are prepared from test compound DMSO dilutions and transferred to buffer, maintaining a 1% v/v DMSO concentration.
(§6) For assessment of A-B permeability, HBSS is removed from the apical compartment and replaced with compound 2 dosing solution. The apical compartment insert is then placed into a companion plate containing fresh buffer (containing 1% v/v DMSO). For assessment of B-A permeability, HBSS is removed from the companion plate and replaced with compound 2 dosing solution. Fresh buffer (containing 1% v/v DMSO) is added to the apical compartment insert, which is then placed into the companion plate.
(§7) At 60 min the apical compartment inserts and the companion plates are separated and apical and basolateral samples diluted for analysis.
(§8) Compound 2 permeability is assessed in duplicate. Compounds of known permeability characteristics are run as controls on each assay plate.
(§9) Compound 2 and control compounds are quantified by LC-MS/MS cassette analysis using an 8-point calibration with appropriate dilution of the samples. The starting concentration (Co) is determined from the dosing solution and the experimental recovery calculated from Co and both apical and basolateral compartment concentrations.
(§10) The integrity of the monolayer throughout the experiment is checked by monitoring lucifer yellow permeation using fluorimetric analysis. Lucifer yellow permeation is high if monolayers have been damaged.

[6] = system: MDR1; experiment: MDR1-MDCK permeability assay; type: in vitro ADME; conditions: dog
Procedure: as §4, §5, §6, §7, §8, §9, §10

## O=C(CNc1c(F)c(F)nc(F)c1F)N[C@H]1N=C(c2ccccc2)c2ccccc2NC1=O [Compound 2]
[1]
  CC50: 100 µM
[2]; pH 7.4, 0.5 mg/mL protein, read-out: Intrinsic clearance - dog
  microsomal CLint at 3 μM: 7.05 µL/min/mg
[2]; pH 7.4, read-out: t½ - dog
  half-life at 3 μM: 3.28 h
[3]; IV and PO
  Pharmacokinetic assessment in words: orally bioavailable with moderate clearance
[3]; PO 10 mg/kg vs IV 1 mg/kg
  F: 54.8%
[3]; male, CD-1, plasma, IV 1 mg/kg
  Vd: 3.65 L/kg
  clearance: 63.1 mL/min/kg
[3]; male, CD-1, plasma, IV 1 mg/kg, read-out: IV t½
  half-life: 0.983 h
[3]; male, CD-1, plasma, PO 10 mg/kg
  Cmax: 349 ng/mL
[3]; male, CD-1, plasma, PO 10 mg/kg, read-out: PO t½
  half-life: 2.2 h
[4]
  IC50: 0.625 µM
[5]
  Permeability assessment in words: permeable compound but with a susceptibility for an efflux mechanism
[6]; 10 μM, 60 min, read-out: Permeability A2B
  Papp A→B at 60 min, 10 μM: 0.553 ×10⁻⁶ cm/s
[6]; 10 μM, 60 min, read-out: Permeability B2A
  Papp B→A at 60 min, 10 μM: 76.3 ×10⁻⁶ cm/s
[6]; read-out: Efflux ratio B2A/A2B
  efflux ratio at 60 min, 10 μM: 138
